How the values were obtained:
[1] = target: T1, mouse 5-HT3 receptor (Mus musculus, UniProt P23979); test: Compound affinity for the mouse 5-HT3 receptor (Assay C), [3H]-GR65630 radioligand binding, Novoscreen; conditions: Assay C; single concentration 100 nM, in duplicate; [3H]-GR65630; read-out: Mouse % Inhibition @ 100 nM
T1 construct: host or cells: mouse neuroblastoma cells (N1E-155 as printed)
T1 sequence (P23979 24-489): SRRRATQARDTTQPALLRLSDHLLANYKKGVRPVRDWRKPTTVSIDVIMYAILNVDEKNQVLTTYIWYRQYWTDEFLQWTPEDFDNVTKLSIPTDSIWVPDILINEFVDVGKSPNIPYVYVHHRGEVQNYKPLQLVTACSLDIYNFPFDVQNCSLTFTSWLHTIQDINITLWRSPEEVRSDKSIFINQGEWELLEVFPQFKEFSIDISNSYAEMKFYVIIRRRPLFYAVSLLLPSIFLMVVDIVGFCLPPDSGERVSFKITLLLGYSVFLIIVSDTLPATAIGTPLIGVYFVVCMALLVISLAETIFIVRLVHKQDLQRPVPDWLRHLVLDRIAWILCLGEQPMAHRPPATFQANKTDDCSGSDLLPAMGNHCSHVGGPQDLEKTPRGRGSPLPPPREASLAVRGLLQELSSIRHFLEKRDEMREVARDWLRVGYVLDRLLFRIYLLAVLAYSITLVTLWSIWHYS
Description: Compound Affinity for the Mouse 5-HT3Receptor (Assay C)
Compounds were tested by Novoscreen Biosciences Corporation, 7170 Standard Drive, Hanover, Md. in a radioligand binding assay using the mouse 5-HT3 receptor derived from mouse neuroblastoma cells and [^3H]-GR65630 (ligand). The non-specific binding determinant was MDL 72222. Compounds were tested at a single concentration of 100 nM in duplicate. Percent inhibition is reported. In order to evaluate the relative affinity of the various compounds for the 5-HT3 receptor, N1E-155 cell lines were developed to express the target protein. For binding, these cells were homogenized, centrifuged and washed with buffer (20 mM HEPES, 150 mM NaCl, pH 7.4) then suspended in 0.5 mL of buffer and [^3H]-GR65630 added at a concentration of 3.5×10^−10 M. An initial single concentration of 10^−7 M of the test compound was then added. Incubation was carried out at room temperature for 60 minutes at 25° C. then was terminated by rapid removal of the incubation medium. Radioactivity was assessed using liquid scintillation spectrophotometry after exposure to scintillation cocktail for at least three hours. […] Ki values were then calculated from the Cheng-Prusoff equation. In all of the above binding studies the non-specific determinant was MDL-72222 (1.0 μM).
(§1) In the table below, the assay in which the data were obtained is shown (as A, B. C, or D) along with the data.

[2] = target: T2, 5-HT3 receptors (Mus musculus, UniProt P23979); test: Bezold-Jarisch assay in vivo: inhibition of serotonin induced bradycardia; conditions: 30 mg/kg orally, 60 min before 5-HT 0.5 mg/kg IV, pentobarbital-anesthetized
T2 construct: from tissue; host or cells: whole animal, CD-1(Crl.) mice
T2 sequence (P23979 24-489): T1 sequence (P23979 24-489)
Description: Bezold-Jarisch Assay in vivo. […] Arch. Int. Pharmacodyn. 277: 235-252, 1985]. Test substances and vehicle [2% Tween 80] were each administered orally (30 mg/kg) to a group of 5 male or female CD-1(Crl.) mice each weighing 24±2 g. A dosing volume of 10 mL/kg was used. Sixty minutes later, 5-HT (0.5 mg/kg IV)-induced bradycardia was recorded in pentobarbital (80 mg/kg IP, given 10 minutes before 5-HT)-anesthetized animals.

[3] = target: T3, human 5-HT3 receptor (Homo sapiens, UniProt P46098); test: Compound affinity for the human 5-HT3 receptor (Assay B), SPA radioligand binding with [9-methyl-3H]BRL-43694; parameters: purchased Perkin Elmer
T3 sequence (P46098 24-478): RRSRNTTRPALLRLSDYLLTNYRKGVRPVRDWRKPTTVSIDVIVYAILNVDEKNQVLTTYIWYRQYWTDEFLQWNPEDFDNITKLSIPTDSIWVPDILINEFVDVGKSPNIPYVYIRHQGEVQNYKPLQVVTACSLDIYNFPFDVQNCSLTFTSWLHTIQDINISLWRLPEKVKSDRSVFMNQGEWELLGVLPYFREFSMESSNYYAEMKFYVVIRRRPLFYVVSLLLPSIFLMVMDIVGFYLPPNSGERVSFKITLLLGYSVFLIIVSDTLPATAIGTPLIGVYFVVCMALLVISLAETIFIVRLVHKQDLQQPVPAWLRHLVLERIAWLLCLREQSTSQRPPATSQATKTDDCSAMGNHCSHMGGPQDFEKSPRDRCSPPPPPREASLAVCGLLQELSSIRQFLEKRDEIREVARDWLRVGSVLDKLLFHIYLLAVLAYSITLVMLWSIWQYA
Description: Compound Affinity for the Human 5-HT3 Receptor (Assay B)
The relative affinity of the various compounds for the human 5-HT3 receptor was measured in a radioligand binding assay, using a scintillation proximity assay (SPA) format. Test compounds were dissolved to 10 mM in 100% DMSO, then serially diluted at 10× assay concentrations in 100% DMSO in 96-well polypropylene plates and further diluted to 4× assay concentrations with the assay buffer. Samples were incubated in 50 mM Tris-HCl, pH 7.5, 3 mM MgCl2, 1 mM EDTA and 10% DMSO with 10 nM [9-methyl-3H]BRL-43694 (Perkin Elmer), 3 μg of human 5-HT3 receptor membranes (Perkin Elmer) and 0.5 mg/mL SPA beads (WGA PVT, Amersham Biosciences) in a final volume of 0.2 mL. Binding reactions were set up in wells of PicoPlates-96 (Perkin Elmer) by adding consecutively 50 μL of each competing compound or buffer, SPA beads, the radioligand and 5-HT3 receptor membranes. After 60-min incubation at room temperature on a Nutator mixer, plates were centrifuged for 15 min at 1,500 rpm, followed by incubation in the dark for 30 min. Radioactivity was counted in the TopCount microplate counter (Perkin Elmer) for 5 min. Total binding control contained buffer only; nonspecific binding was determined in the presence of 30 μM MDL-72222. Specific binding was determined by subtracting nonspecific binding from total binding. All experiments were performed in duplicate using ten concentrations of a competing ligand, with ondansetron included as a control in every run. IC50 values were determined from specific binding data using XLfit4.1 curve fitting software from IDBS Ltd. Ki values were then calculated from the Cheng-Prusoff equation.
as §1

Structure (SMILES)	inhibition at 0.1 µM [1] [%]	inhibition of 5-HT-induced bradycardia [2] [%]	Ki [3] [nM]
O=C(N[C@@H]1CN2CCC1CC2)c1cccc2oc(C3CC3)nc12 [Example 2, (S)—N-(1-Azabicyclo[2.2.2]oct-3-yl)-2-cyclopropylbenzoxazole-4-carboxamide]	87.7	80	11
CN1[C@@H]2CCC[C@H]1C[C@@H](NC(=O)c1cccc3oc(C4CC4)nc13)C2 [Example 1, Endo-N-(9-Methyl-9-azabicyclo[3.3.1]non-3-yl)-2-cyclopropylbenzoxazole-4-carboxamide]	96.1	56	4.1
